# Assay results taken from patent publication US20050085553A1, “Remedies for mild recognition deflict” (priority 2001, published 2005).
# Tests used:
# [1] = tested on: Fisher344 rats (27-month old, male); test: water maze test, learning deficit in old rats; format: in vivo, rat; settings: 0.3 or 1.0 mg/kg orally once a day for 14 days
# Method: An Ameliorative Effect of the Agent on Learning Deficit in Old Rats
# Fisher344 rats (27-month old, male) were previously subjected to four trials of a water maze test using a pool with a diameter of 90 cm and a platform on the surface of water in the pool. The rats with remarkable disability to swim were excluded and the rest were divided into several groups. The compound A (0.3 or 1.0 mg/kg) was orally administered to the rats once a day for 14 days. On the 10th day, the rats were subjected to four trials of a water maze test using a platform on the surface of water in a pool and confirmed again that they had no difficulty in swimming ability. Starting from the next day, the rats were subjected four times a day for 3 days to a water maze test using a pool with a diameter of 120 cm and a platform submerged below the surface of water in the pool. In this test, the time required for the rats to arrive at the platform was measured. Two trials were expressed as one block. During the behavioral pharmacological test period, the drug was administered after the test.
# [2] = tested on: insoluble Aβ40; test: quantity of insoluble Aβ40 in cerebral cortex of transgenic mice with Swedish APP mutation (ELISA); format: in vivo, mouse; settings: feed containing 56 ppm (about 7 mg/kg/day) for six months, 13-14 month old mice
# Method: (§1) An Effect on Increase in Insoluble Aβ40/42 and Amyloid Plaque Formation in the Brains of Transgenic Mice with Swedish APP Mutation
# (§2) Transgenic mice with Swedish amyloid precursor protein (APP) mutation (7- to 8-month old) were given solid feed containing the compound A (56 ppm) (equivalent to a dosage of about 7 mg/kg/day) or control feed for six months. After six months from the administration, one cerebral hemisphere was used for brain histological examination and the other hemisphere was used for determining the quantity of Aβ40/42. Cerebral cortex was used for measuring the quantity of Aβ. The accumulation type of insoluble Aβ40/42 protein were extracted by homogenization of the cerebral cortex in 25 times amount of Tris buffer (containing a protease inhibitor) followed by centrifugation to remove the supernatant. Then, 19 times amount of 70% formic acid was added to the insoluble precipitation and homogenized to solubilize it. After centrifugation, the supernatant was diluted to 1/20 with 1M Tris solution for neutralization and the diluted supernatant was used for determining the quantity of Aβ40/42 contained therein. Using enzyme-linked immunosorbent assay (ELISA), the quantity of accumulation-type Aβ40/42 was measured.
# [3] = tested on: amyloid plaques; test: number and area of amyloid plaques, brain sections immunostained with BAN50; format: in vivo, mouse; settings: feed containing 56 ppm (about 7 mg/kg/day) for six months; sections containing dorsal hippocampus
# Method: as §1
# as §2, with “measured. […]” for “measured.”
# [4] = tested on: insoluble Aβ42; test: quantity of insoluble Aβ42 in cerebral cortex of transgenic mice with Swedish APP mutation (ELISA); format: in vivo, mouse; settings: feed containing 56 ppm (about 7 mg/kg/day) for six months, 13-14 month old mice
# Method: as §1, §2
# [5] = tested on: transgenic mice with Swedish APP mutation; test: general condition of the mice during the drug administration period; format: in vivo, mouse; settings: feed containing 56 ppm (about 7 mg/kg/day) for six months
# Method: as §2
structure (smiles),measurement,setting,value
"CN(C)CC[C@@H]1CCc2cc(OCc3ccc(-c4ccccc4)cc3)ccc2C1.Cl.O [compound A, (R)-(+)-6-(4-biphenylyl)methoxy-2-[2-(N,N-dimethylamino)ethyl]tetralin Hydrochloride Monohydrate]",swimming time for escape,"[1]; final training block, compared between the groups",significantly shortened
same,time required to arrive at the platform,"[1]; water maze, large pool (120 cm), submerged platform, vs old control group",significantly improved
same,reduction of quantity of insoluble Aβ40 in contrast to the vehicle group,[2],about 30%
same,"area of amyloid plaques, relative to the vehicle group",[3],~35 % of those in the vehicle group
same,"number of amyloid plaques, relative to the vehicle group",[3],about 40 % of those in the vehicle group
same,reduction of quantity of insoluble Aβ42 in contrast to the vehicle group,[4],about 30%
same,change in the general condition of the mice including weight loss,[5],no change
